Measurements: patent US20220257491A1, “Prebiotic Oral Care Compositions and Methods” (Colgate-Palmolive Company, priority 2021, published 2022)
Values joined by “and” are separate entries in the source; they are usually repeats but may differ in a detail not shown here. Equal values may be shown once.

Key:
Assay type in all cases: cell-based
[1] = tested on: F. nucleatum; assay: Multi-species biofilm composition: absolute abundance of F. nucleatum; conditions: mean±SD n=3
Procedure: (§1) Biofilms are grown vertically on Calcium Deficient Hydroxyapatite (CAD-HA) disks (Hitemco Medical, Old Bethpage, USA) using the Amsterdam Active Adhesion model. Biofilms are allowed to establish during 24 h (37° C., 170 rpm) under micro-aerophilic conditions (6% O2, 7% CO2, 7% H2, 80% N2). After this 24 h, disks are rinsed 3 times a day for 3 minutes (RT, 250 rpm), for 3 consecutive days, by transferring the lid containing the disks to a new 24-well plate containing 2 mL/well of the appropriate substrate solution. As a negative control, PBS (pH 5.7) without substrate supplementation is used. After each rinsing step, disks are shortly dip-rinsed in a new 24-well plate containing fresh modified BHI medium (2 mL/well) to remove remaining substrate traces. Subsequently, the lid is transferred to another 24-well plate containing fresh modified BHI medium (2 mL/well), followed by incubation (micro-aerophilic, 37° C., 170 rpm) until the next rinsing step.
(§2) NADM, N-acetyl-D-glucosamine (“NADG”) and D-(+)-mannose are selected to determine their effects on multi-species biofilm composition. […] decrease in absolute numbers in at least four of the pathogenic bacterial species tested in the assay, compared to the control, the results of which are described in Table 1 below. Absolute abundances of bacterial species are shown as mean±SD (n=3) logarithmic values of the genome equivalents per millilitre (log(Geq/mL)).

[2] = tested on: P. intermedia; assay: Multi-species biofilm composition: absolute abundance of P. intermedia; conditions: mean±SD n=3
Procedure: as §1
(§3) NADM, N-acetyl-D-glucosamine (“NADG”) and D-(+)-mannose are selected to determine their effects on multi-species biofilm composition. Repeated rinsing of the biofilms with the substrates at a concentration of 1M results in a significant decrease in absolute numbers in at least four of the pathogenic bacterial species tested in the assay, compared to the control, the results of which are described in Table 1 below. Absolute abundances of bacterial species are shown as mean±SD (n=3) logarithmic values of the genome equivalents per millilitre (log(Geq/mL)).

[3] = tested on: A. viscosus; assay: Multi-species biofilm composition: absolute abundance of A. viscosus; conditions: mean±SD n=3
Procedure: as §1, §2

[4] = tested on: S. mitis; assay: Multi-species biofilm composition: absolute abundance of S. mitis; conditions: mean±SD n=3
Procedure: as §1, §2

[5] = tested on: S. salivarius; assay: Multi-species biofilm composition: absolute abundance of S. salivarius; conditions: mean±SD n=3
Procedure: as §1, §3

[6] = tested on: S. sanguinis; assay: Multi-species biofilm composition: absolute abundance of S. sanguinis; conditions: mean±SD n=3
Procedure: as §1, §2

[7] = tested on: multi-species biofilm; assay: Relative multi-species biofilm composition (groups of bacterial species); conditions: mean±SD n=3
Procedure: as §1, §2
Relative abundances of the different groups (beneficial/commensals, periodontal pathogens, cariogenic pathogens) of bacterial species are shown as mean±SD (n=3) percentage of the genome equivalents per millilitre (% (Geq/mL)). […] NADM: N-acetyl-D-mannosamine; NADG: N-acetyl-D-glucosamine.

[8] = tested on: multi-species biofilms; assay: Multi-species biofilm organic acid balances (supernatant); conditions: >0 production, <0 consumption, mean±SD n=3
Procedure: as §1
To examine the effect of NADM and the influence of the orientation and absence/presence of the N-acetyl group on organic acid production and consumption, supernatant samples from substrate-treated or untreated multi-species biofilms are analysed. […] When comparing relevant significant differences between substrate conditions, an increase in acetate production is observed for NADM compared to D-(+)-mannose (3084±174 vs. 1934±56 mg/L).

[9] = tested on: P. gingivalis virulence genes; assay: Multi-species biofilm virulence gene expression, SYBR RT-qPCR: P. gingivalis; conditions: relative to control, 2^-ΔΔCt, geometric mean n=3
Procedure: as §1
(§4) The expression of 33 virulence genes from 4 periodontal pathogens is analysed to evaluate the relative virulence of the substrate-treated biofilms. For all three substrates, virulence gene expression is determined relatively to the control, and these values are also compared between substrates when this is relevant (Tables 5a-5d).

[10] = tested on: F. nucleatum virulence genes; assay: Multi-species biofilm virulence gene expression, SYBR RT-qPCR: F. nucleatum; conditions: relative to control (=1), 2^-ΔΔCt, geometric mean n=3
Procedure: as §1, §4

[11] = tested on: P. intermedia virulence genes; assay: Multi-species biofilm virulence gene expression, SYBR RT-qPCR: P. intermedia; conditions: for Fold Change in virulence gene expression: DnaJ / Fold Change in virulence gene expression: DnaK / Fold Change in virulence gene expression: ECF / Fold Change in virulence gene expression: GroES / Fold Change in virulence gene expression: HtpG / Fold Change in virulence gene expression: KpsD / Fold Change in virulence gene expression: adpc / Fold Change in virulence gene expression: clpB / Fold Change in virulence gene expression: inpA / Fold Change in virulence gene expression: phg: relative to control (=1), 2^-ΔΔCt, geometric mean n=3
Procedure: as §1, §4

`CC(=O)N[C@@H]1C(O)O[C@H](CO)[C@@H](O)[C@@H]1O` (stereo partly drawn) [NADM, N-acetyl-D-mannosamine] was tested, and the “Absolute abundance Fn (F. nucleatum)” value ([1]; substrate 1%(w/v) in PBS) was 9.60 ± 0.22 log(Geq/mL), the “Absolute abundance Fn (F. nucleatum)” value ([1]; substrate 1 M in PBS) was 8.14 ± 0.44 log(Geq/mL) and the “Absolute abundance Pi (P. intermedia)” value ([2]; substrate 1%(w/v) in PBS) was 7.48 ± 0.40 log(Geq/mL). For the same compound, the “Absolute abundance Pi (P. intermedia)” value ([2]; substrate 1 M in PBS) was 9.07 ± 0.06 log(Geq/mL), the “Absolute abundance Av (A. viscosus)” value ([3]; substrate 1%(w/v) in PBS) was 7.73 ± 0.09 log(Geq/mL) and the “Absolute abundance Av (A. viscosus)” value ([3]; substrate 1 M in PBS) was 8.35 ± 0.30 log(Geq/mL). For the same compound, the “Absolute abundance S. mitis” value ([4]; substrate 1%(w/v) in PBS) was “< LOD”, the “Absolute abundance S. mitis” value ([4]; substrate 1 M in PBS) was “<LOD” and the “Absolute abundance S. sal. (S. salivarius)” value ([5]; substrate 1%(w/v) in PBS) was 2.90 ± 0.36 log(Geq/mL). The “Absolute abundance S. sal. (S. salivarius)” value ([5]; substrate 1 M in PBS) was 3.34 ± 0.55 log(Geq/mL), the “Absolute abundance S. sang. (S. sanguinis)” value ([6]; substrate 1%(w/v) in PBS) was 8.62 ± 0.39 log(Geq/mL) and the “Absolute abundance S. sang. (S. sanguinis)” value ([6]; substrate 1 M in PBS) was 9.10 ± 0.29 log(Geq/mL). The “Relative abundance Beneficials/Commensals” value ([7]; substrate 1%(w/v) in PBS) was 61.62 ± 4.88 % (Geq/mL), the “Relative abundance Cariogenic Pathogens” value ([7]; substrate 1%(w/v) in PBS) was 0.05 ± 0.01 % (Geq/mL) and the “Relative abundance Periodontal Pathogens” value ([7]; substrate 1%(w/v) in PBS) was 38.32 ± 4.86 % (Geq/mL). For the same compound, the “Relative abundance Beneficial or commensals” value ([7]; substrate 1 M in PBS) was 97.61±0.28 % (Geq/mL), the “Relative abundance Cariogenic Pathogens” value ([7]; substrate 1 M in PBS) was 0.06 ± 0.04 % (Geq/mL) and the “Relative abundance Periodontal Pathogens” value ([7]; substrate 1 M in PBS) was 2.34±0.31 % (Geq/mL) and 2.34 ± 0.31^#2, 3 % (Geq/mL). The “acetate level in biofilm supernatant” value ([8]; substrate 1%(w/v)) was 396 ± 11 mg/L, the “butyrate level in biofilm supernatant” value ([8]; substrate 1%(w/v)) was 1989 ± 44 mg/L and the “formate level in biofilm supernatant” value ([8]; substrate 1%(w/v)) was 3768 ± 174 mg/L. The “lactate level in biofilm supernatant” value ([8]; substrate 1%(w/v)) was 125 ± 0 mg/L, the “propionate level in biofilm supernatant” value ([8]; substrate 1%(w/v)) was 1891 ± 79 mg/L and the “butyrate level in biofilm supernatant” value ([8]; substrate 1 M) was 541±52 mg/L and 541 ± 52*^, #2, 3 mg/L. The “formate level in biofilm supernatant” value ([8]; substrate 1 M) was 791.9 ± 138.27 mg/L and 792 ± 138 mg/L, the “lactate level in biofilm supernatant” value ([8]; substrate 1 M) was 125 ± 0 mg/L and the “propionate level in biofilm supernatant” value ([8]; substrate 1 M) was 2052 ± 54 mg/L. For the same compound, the “Fold Change in virulence gene expression: fimA” value ([9]; substrate 1%) was 1.07 fold, the “Fold Change in virulence gene expression: kgp” value ([9]; substrate 1%) was 3.46 fold and the “Fold Change in virulence gene expression: partC” value ([9]; substrate 1%) was 0.62 fold. The “Fold Change in virulence gene expression: rgpA” value ([9]; substrate 1%) was 0.88 fold, the “Fold Change in virulence gene expression: fimA” value ([9]; substrate 1M) was 0.50 fold and the “Fold Change in virulence gene expression: kgp” value ([9]; substrate 1M) was 0.82 fold. The “Fold Change in virulence gene expression: partC” value ([9]; substrate 1M) was 0.20 fold, the “Fold Change in virulence gene expression: rgpA” value ([9]; substrate 1M) was 0.43 fold and the “Fold Change in virulence gene expression: ABC transp. perm.” value ([10]; substrate 1%) was 0.39 fold. The “Fold Change in virulence gene expression: EF-G” value ([10]; substrate 1%) was 0.11 fold, the “Fold Change in virulence gene expression: but.-coA transf.” value ([10]; substrate 1%) was 0.38 fold and the “Fold Change in virulence gene expression: hemin receptor” value ([10]; substrate 1%) was 0.10 fold. The “Fold Change in virulence gene expression: hemolysin” value ([10]; substrate 1%) was 0.55 fold, the “Fold Change in virulence gene expression: ompA” value ([10]; substrate 1%) was 0.75 fold and the “Fold Change in virulence gene expression: transposase” value ([10]; substrate 1%) was 0.75 fold. For the same compound, the “Fold Change in virulence gene expression: ABC transp. perm.” value ([10]; substrate 1M) was 2.46 fold, the “Fold Change in virulence gene expression: EF-G” value ([10]; substrate 1M) was 1.37 fold and the “Fold Change in virulence gene expression: but.-coA transf.” value ([10]; substrate 1M) was 0.76 fold. For the same compound, the “Fold Change in virulence gene expression: hemin receptor” value ([10]; substrate 1M) was 2.81 fold, the “Fold Change in virulence gene expression: hemolysin” value ([10]; substrate 1M) was 1.05 fold and the “Fold Change in virulence gene expression: ompA” value ([10]; substrate 1M) was 1.27 fold. For the same compound, the “Fold Change in virulence gene expression: transposase” value ([10]; substrate 1M) was 1.03 fold, the “Relative P. intermedia virulence gene expression, downregulation” value ([11]; substrate 1%(w/v), D-(+)-mannose for 3 genes) was 2.5- to 7.7 fold and the “Fold Change in virulence gene expression: DnaJ” value ([11]; substrate 1%) was 0.19 fold. The “Fold Change in virulence gene expression: DnaK” value ([11]; substrate 1%) was 0.31 fold, the “Fold Change in virulence gene expression: ECF” value ([11]; substrate 1%) was 0.13 fold and the “Fold Change in virulence gene expression: GroES” value ([11]; substrate 1%) was 0.51 fold. The “Fold Change in virulence gene expression: HtpG” value ([11]; substrate 1%) was 0.21 fold, the “Fold Change in virulence gene expression: KpsD” value ([11]; substrate 1%) was 0.35 fold and the “Fold Change in virulence gene expression: adpc” value ([11]; substrate 1%) was 0.21 fold. The “Fold Change in virulence gene expression: clpB” value ([11]; substrate 1%) was 0.40 fold, the “Fold Change in virulence gene expression: inpA” value ([11]; substrate 1%) was 0.28 fold and the “Fold Change in virulence gene expression: phg” value ([11]; substrate 1%) was 0.26 fold. For the same compound, the “Fold Change in virulence gene expression: DnaJ” value ([11]; substrate 1M) was 0.15 fold, the “Fold Change in virulence gene expression: DnaK” value ([11]; substrate 1M) was 0.70 fold and the “Fold Change in virulence gene expression: ECF” value ([11]; substrate 1M) was 0.55 fold. For the same compound, the “Fold Change in virulence gene expression: GroES” value ([11]; substrate 1M) was 0.45 fold, the “Fold Change in virulence gene expression: HtpG” value ([11]; substrate 1M) was 0.35 fold and the “Fold Change in virulence gene expression: KpsD” value ([11]; substrate 1M) was 0.41 fold. The “Fold Change in virulence gene expression: adpc” value ([11]; substrate 1M) was 0.70 fold, the “Fold Change in virulence gene expression: clpB” value ([11]; substrate 1M) was 0.40 fold and the “Fold Change in virulence gene expression: inpA” value ([11]; substrate 1M) was 0.64 fold. The “Fold Change in virulence gene expression: phg” value ([11]; substrate 1M) was 0.15 fold.
